Structures are written as SMILES.

Type in all cases: functional
The test system of one assay is A2780. Nature of the assay: Antiproliferative activity against human A2780 cells after 72 hrs by MTT assay. The settings on record: A2780, 72 h.
Another assay has as its system SW480. In words: Antiproliferative activity against human SW480 cells after 72 hrs by MTT assay. The following applies: SW480, 72 h. For orientation: Tetrazolium assays rely on reduction of a dye to a coloured formazan, in cell work by metabolically active cells.
The subject of another assay is NCI-H460. Nature of the assay: Antiproliferative activity against human H460 cells after 72 hrs by MTT assay. The settings on record: NCI-H460, 72 h.
A short description of assay [1]: Antiproliferative activity against human SJ-G2 cells after 72 hrs by MTT assay. The following applies: SJ-G2, 72 h.
The subject of a further assay is HT-29. In words: Antiproliferative activity against human HT-29 cells after 72 hrs by MTT assay. The settings on record: HT-29, 72 h.
Assay [2] can be described thus: Antiproliferative activity against human BE(2)-C cells after 72 hrs by MTT assay.
The next assay concerns MCF7. Nature of the assay: Antiproliferative activity against human MCF7 cells after 72 hrs by MTT assay. The settings on record: MCF7, 72 h.
For another assay, the system named is A-431. Nature of the assay: Antiproliferative activity against human A431 cells after 72 hrs by MTT assay. The settings on record: A-431, 72 h.
A further assay has as its system DU-145. Nature of the assay: Antiproliferative activity against human DU145 cells after 72 hrs by MTT assay. The following applies: DU-145, 72 h.

For orientation: GI50 means the concentration that inhibits growth by half. Read a high GI50 as less potent growth inhibition. With `O=C1[C@@H]2[C@H](C(=O)N1CCOP(=O)(OCC(Cl)(Cl)Cl)OCC(Cl)(Cl)Cl)[C@H]1CC[C@@H]2O1`, the GI50 (with A2780; in the assay on SW480; in the assay on NCI-H460; in [1]; in the assay on HT-29; in assay [2]) was > 100 µM throughout. In addition, the 50% growth inhibitory concentration (GI50) in the assay on MCF7, in the assay on A-431 and in the assay with DU-145 was > 100 µM throughout.
Take `O=C1[C@@H]2[C@H](C(=O)N1CCO)[C@H]1CC[C@@H]2O1`: the GI50 (in the assay with A2780; in the assay with SW480; with NCI-H460; in [1]; in the assay with HT-29; in [2]) was > 100 µM in each case. For the same compound, the 50% growth inhibitory concentration (GI50) in the assay on MCF7, with A-431 and with DU-145 was > 100 µM in each case.
On to `O=C1[C@@H]2[C@H](C(=O)N1CCCCCCO)[C@H]1CC[C@@H]2O1`, for which the concentration for 50% growth inhibition (GI50) (in the assay with A2780; with SW480; with NCI-H460; in [1]; with HT-29; in [2]) was > 100 µM in each case. Moreover, the GI50 in the assay with MCF7, in the assay on A-431 and in the assay on DU-145 was > 100 µM throughout.
`CCOP(=O)(OCC)OCCN1C(=O)[C@@H]2[C@H](C1=O)[C@H]1CC[C@@H]2O1`: the GI50 amounted to 15 µM with A2780; 18 µM in the assay with SW480; 49 µM with NCI-H460; 43 µM in assay [1]; 33 µM in the assay with HT-29; 28 µM in the assay on MCF7. The results for the GI50 with A-431 and in the assay with DU-145 were 27 µM and 21 µM, respectively.
`CCOP(=O)(OCC)OCCCCCCN1C(=O)[C@@H]2[C@H](C1=O)[C@H]1CC[C@@H]2O1`: the GI50 (in the assay on A2780; with SW480; in the assay on NCI-H460; in assay [1]; with HT-29; in [2]) was > 100 µM throughout. Moreover, the GI50 with MCF7, in the assay with A-431 and in the assay on DU-145 was > 100 µM each time.
As for `CCOP(=O)(OCC)OCCCCN1C(=O)[C@@H]2[C@H](C1=O)[C@H]1CC[C@@H]2O1`, the 50% growth inhibitory concentration (GI50) (in the assay with A2780; in the assay with SW480; in the assay with NCI-H460; in [1]; with HT-29; in assay [2]) was > 100 µM throughout. Besides, the GI50 in the assay on MCF7, in the assay with A-431 and with DU-145 was > 100 µM throughout.
Consider `CCOP(=O)(OCC)OCCCCCN1C(=O)[C@@H]2[C@H](C1=O)[C@H]1CC[C@@H]2O1`, for which the GI50 (with A2780; in the assay on SW480; in the assay with NCI-H460; in assay [1]; in the assay with HT-29; in assay [2]) was > 100 µM throughout. Moreover, the GI50 in the assay on MCF7, in the assay with A-431 and in the assay on DU-145 was > 100 µM each time.
On to `CCOP(=O)(OCC)O[C@H]1CCCC[C@@H]1N1C(=O)[C@@H]2[C@H](C1=O)[C@H]1CC[C@@H]2O1`, for which the GI50 with A2780 stood at 22 µM; in the assay with SW480, 33 µM; in the assay with NCI-H460, 89 µM; in [1] it was 60 µM; with HT-29, 57 µM; in [2] it was 31 µM. Besides, the 50% growth inhibitory concentration (GI50) in the assay on MCF7 came to 50 µM; in the assay on A-431, 47 µM; in the assay on DU-145, 36 µM.
`O=C1[C@@H]2[C@H](C(=O)N1CCOP(=O)(Oc1ccccc1)Oc1ccccc1)[C@H]1CC[C@@H]2O1`: the GI50 (with A2780; with SW480; with NCI-H460; in [1]; in the assay with HT-29; in [2]) was > 100 µM throughout. The GI50 in the assay with MCF7, with A-431 and in the assay with DU-145 was > 100 µM each time.
For `O=C1[C@@H]2[C@H](C(=O)N1CCCCCCOP(=O)(Oc1ccccc1)Oc1ccccc1)[C@H]1CC[C@@H]2O1`, the GI50 in the assay on A2780 amounted to 11 µM; with SW480, 14 µM; in the assay on NCI-H460, 25 µM; in [1], 14 µM; in the assay on HT-29, 5.4 µM; in assay [2], 14 µM. The values for the GI50 in the assay with MCF7, in the assay with A-431 and in the assay on DU-145 were 9.1 µM, 13 µM and 7 µM, respectively.
Turning to `O=C1[C@@H]2[C@H](C(=O)N1CCCOP(=O)(Oc1ccccc1)Oc1ccccc1)[C@H]1CC[C@@H]2O1`, the GI50 (with A2780; in the assay with SW480; in the assay on NCI-H460; in assay [1]; with HT-29; in assay [2]) was > 100 µM throughout. The GI50 with MCF7, with A-431 and in the assay on DU-145 was > 100 µM each time.
As to `O=C1[C@@H]2[C@H](C(=O)N1CCCCOP(=O)(Oc1ccccc1)Oc1ccccc1)[C@H]1CC[C@@H]2O1`, the concentration for 50% growth inhibition (GI50) came to 17 µM in the assay on A2780; 28 µM with SW480; 64 µM in the assay with NCI-H460; 17 µM in [1]; 14 µM in the assay with HT-29; 25 µM in assay [2]. In addition, the GI50 in the assay on MCF7 came to 19 µM; with A-431, 21 µM; with DU-145 it was 13 µM.
For `O=C1[C@@H]2[C@H](C(=O)N1CCCCCOP(=O)(Oc1ccccc1)Oc1ccccc1)[C@H]1CC[C@@H]2O1`, the GI50 with A2780 was 46 µM; in the assay on SW480 it was 50 µM; in the assay with NCI-H460, 63 µM; in assay [1], 50 µM; with HT-29, 42 µM; in assay [2], 56 µM. Also, the GI50 in the assay on MCF7 was found to be 31 µM; with A-431 it was 45 µM; in the assay with DU-145, 52 µM.
For `O=C1[C@@H]2[C@H](C(=O)N1[C@H]1CCCC[C@@H]1OP(=O)(Oc1ccccc1)Oc1ccccc1)[C@H]1CC[C@@H]2O1`, the GI50 in the assay with A2780 amounted to 24 µM; in the assay on SW480, 26 µM; in the assay with NCI-H460 it was 48 µM; in assay [1] it was 31 µM; with HT-29 it was 11 µM; in assay [2], 28 µM. The GI50 in the assay on MCF7 was 14 µM; with A-431, 26 µM; in the assay on DU-145 it was 35 µM.
Regarding `O=C1[C@@H]2[C@H](C(=O)N1CCCCCCOP(=O)(OCC(Cl)(Cl)Cl)OCC(Cl)(Cl)Cl)[C@H]1CC[C@@H]2O1`, the GI50 was found to be 7.7 µM in the assay with A2780; 10 µM with SW480; 13 µM in the assay on NCI-H460; 14 µM in assay [1]; 11 µM with HT-29; 9.3 µM in assay [2]. In addition, the GI50 is 12 µM in the assay on MCF7, 12 µM with A-431 and 13 µM with DU-145.
Consider `O=C1[C@@H]2[C@H](C(=O)N1CCCOP(=O)(OCC(Cl)(Cl)Cl)OCC(Cl)(Cl)Cl)[C@H]1CC[C@@H]2O1`, for which the GI50 is 47 µM in the assay with A2780; 72 µM in the assay on SW480; 78 µM in the assay with NCI-H460; 58 µM in assay [1]; 57 µM in the assay with HT-29; 50 µM in assay [2]. The results for the GI50 in the assay on MCF7, in the assay on A-431 and in the assay with DU-145 were 60 µM, 80 µM and > 100 µM, respectively.
`O=C1[C@@H]2[C@H](C(=O)N1CCCCOP(=O)(OCC(Cl)(Cl)Cl)OCC(Cl)(Cl)Cl)[C@H]1CC[C@@H]2O1`: the GI50 in the assay with A2780 worked out at 26 µM; in the assay with SW480, 32 µM; with NCI-H460, 56 µM; in [1] it was 48 µM; in the assay with HT-29 it was 16 µM; in assay [2], 40 µM. The GI50 was determined as 28 µM in the assay with MCF7, 31 µM in the assay on A-431 and 49 µM in the assay on DU-145.
Turning to `O=C1[C@@H]2[C@H](C(=O)N1CCCCCOP(=O)(OCC(Cl)(Cl)Cl)OCC(Cl)(Cl)Cl)[C@H]1CC[C@@H]2O1`, the GI50 with A2780 turned out to be 16 µM; in the assay on SW480, 17 µM; in the assay on NCI-H460 it was 29 µM; in assay [1] it was 19 µM; in the assay with HT-29 it was 15 µM; in [2], 22 µM. Further, the GI50 came out at 16 µM in the assay with MCF7, 18 µM in the assay with A-431 and 26 µM in the assay with DU-145.
Regarding `O=C1[C@@H]2[C@H](C(=O)N1[C@H]1CCCC[C@@H]1OP(=O)(OCC(Cl)(Cl)Cl)OCC(Cl)(Cl)Cl)[C@H]1CC[C@@H]2O1`, the GI50 in the assay on A2780 was 39 µM; in the assay with SW480, 69 µM; in the assay with NCI-H460, > 100 µM; in assay [1], 45 µM; with HT-29 it was 56 µM; in [2] it was 51 µM. Also, the GI50 in the assay on MCF7 turned out to be 54 µM; with A-431, 48 µM; with DU-145 it was 69 µM.
Take `O=C1c2ccccc2C(=O)N1CCCOP(=O)(Oc1ccccc1)Oc1ccccc1`: the GI50 (in the assay on A2780; in the assay on SW480; in the assay on NCI-H460; in assay [1]; in the assay with HT-29; in [2]) was > 100 µM in each case. The GI50 with MCF7, with A-431 and in the assay with DU-145 was > 100 µM throughout.
Consider `O=C1OC(=O)C2C3CCC(O3)C12` (stereo not drawn) [DEMETHYL-CANTHARIDIN], for which the GI50 in the assay with A2780 was determined as 38 µM; with SW480, 44 µM; in the assay with NCI-H460, 45 µM; in assay [1], 23 µM; with HT-29, 57 µM; in [2] it was 43 µM. Also, the figures for the GI50 in the assay with MCF7, with A-431 and with DU-145 were 68 µM, 31 µM and 28 µM, respectively.

Values taken from ChEMBL document CHEMBL1821633, “Norcantharimide analogues possessing terminal phosphate esters and their anti-cancer activity” (2011).
